Experimental findings from patent publication US20100216767A1, “QUINAZOLINES FOR PDK1 INHIBITION” (priority 2006, published 2010) are described below.

By pIC50 is commonly meant the IC50 on a negative log10 scale, so that one unit is a factor of ten. Read a high pIC50 as a low IC50.

pIC50: −log10 of the molar value. A value given as a limit tells only on which side of the number the result lay.

In this test the target is T1, PDK1 kinase (Homo sapiens, UniProt O15530).
T1 sequence (O15530 1-556): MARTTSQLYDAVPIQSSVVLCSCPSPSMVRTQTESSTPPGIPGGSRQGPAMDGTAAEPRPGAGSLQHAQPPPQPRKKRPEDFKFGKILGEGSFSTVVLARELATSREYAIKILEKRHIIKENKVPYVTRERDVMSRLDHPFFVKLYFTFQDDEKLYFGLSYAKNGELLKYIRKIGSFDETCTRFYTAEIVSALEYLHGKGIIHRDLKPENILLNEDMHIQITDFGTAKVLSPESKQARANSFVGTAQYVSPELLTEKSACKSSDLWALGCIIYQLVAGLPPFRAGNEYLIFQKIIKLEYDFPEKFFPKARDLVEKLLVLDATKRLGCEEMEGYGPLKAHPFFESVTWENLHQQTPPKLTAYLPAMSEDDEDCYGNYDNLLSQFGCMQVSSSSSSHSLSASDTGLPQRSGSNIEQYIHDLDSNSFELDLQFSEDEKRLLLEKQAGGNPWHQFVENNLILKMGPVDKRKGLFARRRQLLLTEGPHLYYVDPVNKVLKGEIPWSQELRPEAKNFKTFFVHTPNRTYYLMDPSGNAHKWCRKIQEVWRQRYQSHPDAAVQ
The test is described as follows: PDK1 Kinase Alpha Screen Assay. The class given is biochemical. To be noted: Table 1; 10 μM ATP, 50 nM PDK1-4 peptide. The procedure: Reagents/Concentrations: The PDK1-4 peptide substrate, biotin-[…]-NH2, (SEQ ID NO: 1), was purchased from the Tufts University Core Facility. The final concentration of PDK1-4 peptide substrate was 50 nM. The ATP substrate (adenosine-[…] triphosphate) was purchased from Roche Diagnostics. The final concentration of ATP substrate was 10 μM. Phospho-(Ser/Thr) PKA substrate antibody was purchased from Cell Signaling Technology. The final concentration of antibody was 0.3 mg/mL. The Alpha Screen Protein A detection kit containing donor and acceptor beads was purchased from PerkinElmer Life Sciences. The final concentration of both donor and acceptor beads was 25 μg/mL. Alpha Screen was used for detection. The biotinylated-PDK1-4 peptide was phosphorylated by PDK1 kinase using the ATP substrate. The biotinylated-PDK1-4 peptide substrate was bound to the streptavidin coated donor bead. The antibody was bound to the protein A coated acceptor bead. The antibody bound to the phosphorylated form of the biotinylated PDK-1 peptide substrate, bringing the donor and acceptor beads into close proximity. Laser irradiation of the donor bead at 680 nm generated a flow of short-lived singlet oxygen molecules. When the donor and acceptor beads were in close proximity, the reactive oxygen generated by the irradiation of the donor beads initiated a luminescence/fluorescence cascade in the acceptor beads. This process led to a highly amplified signal with output in the 530-620 nm range. Assays were carried out in 50 mM Tris, pH=7.5, 10 mM MgCl2, 0.1% BSA, 0.01% Tween-20, 2 mM dithiolthreitol, 2.5% dimethyl sulfoxide. Reactions were stopped by adding 50 mM Tris, pH=7.5, 90 mM EDTA, 0.1% BSA, 0.01% Tween-20.
Procedure: To 10 μl, of PDK1-4 peptide, […] of test compound in dimethyl sulfoxide was added. PDK1 kinase and ATP were mixed, and 10 μL of the PDK1 kinase/ATP mix was added to start the reaction. The reaction was allowed to proceed for 3-18 hours. The reactions were then stopped by adding 10 μL of the EDTA-containing stop buffer. Beads were mixed with antibody, and 25 μL of the bead/antibody mix was then added to the stopped reactions. Plates were incubated at room temperature overnight to allow for detection development before being read. The assay was run in a 384-well format plate.
As for `COc1cc2cnc(Nc3cc(CN4CCOCC4)cc(NC(C)=O)c3)nc2cc1OC` [Example 174, N-(3-(6,7-dimethoxy-quinazolin-2-ylamino)-5-(morpholinomethyl)-phenyl)acetamide], the pIC50 is above 5.30. Take `CC(=O)Nc1cc(CN2CCOCC2)cc(Nc2ncc3cc(-c4cnoc4)ccc3n2)c1` [Example 136, N-(3-(6-(isoxazol-4-yl)quinazolin-2-ylamino)-5-(morpholinomethyl)-phenyl)-acetamide]: the pIC50 was above 5.30. Under `NS(=O)(=O)c1ccc(Nc2ncc3cc(C(=O)NC4CC4)ccc3n2)cc1` [Example 43, N-cyclopropyl-2-(4-sulfamoylphenylamino)-quinazoline-6-carboxamide] stands above 5.30; under `C#Cc1cc(OC)c2nc(Nc3ccc(S(N)(=O)=O)cc3)ncc2c1` [Example 2, 4-(6-Ethynyl-8-methoxyquinazolin-2-ylamino)benzenesulfonamide], above 5.30. Compound `N#Cc1ccc2nc(Nc3ccc(N4CCOCC4)cc3)ncc2c1` [Example 76, 2-(4-morpholinophenyl-amino)quinazoline-6-carbonitrile] gave a pIC50 above 5.30.

`NC(=O)c1ccc(Nc2ncc3cc(Br)ccc3n2)cc1` [Example 79, 4-(6-bromoquinazolin-2-ylamino)benzamide]: the pIC50 was above 5.30.

In turn, `C#Cc1cc(OC)c2nc(Nc3cc(CN(C)C)cc(NC(C)=O)c3)ncc2c1` [Example 86, N-(3-((dimethylamino)-methyl)-5-(6-ethynyl-8-methoxyquinazolin-2-ylamino)phenyl)acetamide] had a pIC50 above 5.30.

Compound `CC(=O)Nc1cc(CN2CCCC2)cc(Nc2ncc3cc(-c4nccs4)ccc3n2)c1` [Example 126, N-(3-(pyrrolidin-1-ylmethyl)-5-(6-(thiazol-2-yl)quinazolin-2-ylamino)-phenyl)acetamide] had a pIC50 above 5.30.

For `C#Cc1ccc2nc(Nc3cc(CN(C)C)cc(NC(C)=O)c3)ncc2c1Cl` [Example 90, N-(3-(5-chloro-6-ethynyl-quinazolin-2-ylamino)-5-((dimethylamino)methyl)-phenyl)acetamide], the pIC50 is above 5.30. `C#Cc1cc2cnc(Nc3ccc(C(=O)N4CCOCC4)c(Cl)c3)nc2cc1OC` [Example 120, (2-chloro-4-(6-ethynyl-7-methoxyquinazolin-2-ylamino)phenyl)-(morpholino)methanone] gave a pIC50 above 5.30. Under `C#Cc1ccc2nc(Nc3ccc(N4CCOCC4)c(C(N)=O)c3)ncc2c1` [Example 124, 5-(6-ethynylquinazolin-2-ylamino)-2-morpholino-benzamide] stands above 5.30; under `CC(=O)Nc1cc(I)cc(Nc2ncc3cc(Br)ccc3n2)c1` [Example 31, N-(3-(6-Bromoquinazolin-2-ylamino)-5-iodophenyl)acetamide], above 5.30. The figure for `COc1cc2nc(Nc3cc(CN4CCOCC4)cc(NC(C)=O)c3)ncc2cc1-c1nccs1` [Example 140, N-(3-(7-methoxy-6-(thiazol-2-yl)quinazolin-2-ylamino)-5-(morpholino-methyl)phenyl)-acetamide] is above 5.30; for `Cc1ccc2nc(Nc3ccc(S(N)(=O)=O)cc3)ncc2c1` [Example 54, 4-(6-methylquinazolin-2-ylamino)benzene-sulfonamide] it is above 5.30; for `COc1cc(-c2cnn(C)c2)cc2cnc(Nc3ccc(S(N)(=O)=O)cc3)nc12` [Example 62, 4-(8-methoxy-6-(1-methyl-1H-pyrazol-4-yl)-quinazolin-2-ylamino)-benzenesulfonamide] it is above 5.30. For the compound `Brc1ccc2nc(Nc3ccc(N4CCOCC4)cc3)ncc2c1` [Example 77, 6-bromo-N-(4-morpholino-phenyl)quinazolin-2-amine], the pIC50 was above 5.30. The compound `COc1cc2nc(Nc3ccc(C(=O)N4CCOCC4)c(Cl)c3)ncc2cc1Br` [Example 102, (4-(6-bromo-7-methoxy-quinazolin-2-ylamino)-2-chlorophenyl)(morpholino)-methanone] showed a negative logarithm of the IC50 (pIC50) above 5.30. In turn, `COc1ccc2nc(Nc3cc(CN(C)C)cc(NC(C)=O)c3)ncc2c1` [Example 109, N-(3-((dimethylamino)-methyl)-5-(6-methoxy-quinazolin-2-ylamino)-phenyl)acetamide] showed a pIC50 above 5.30. `C#Cc1cc(F)c2nc(Nc3cc(CN(C)C)cc(NC(C)=O)c3)ncc2c1` [Example 139, N-(3-((Dimethylamino)methyl)-5-(6-ethynyl-8-fluoroquinazolin-2-ylamino)-phenyl)acetamide]: the pIC50 is above 5.30. `C#Cc1ccc2nc(Nc3ccc(N4CCOCC4)cc3)ncc2c1` [Example 57, 6-ethynyl-N-(4-morpholinophenyl)-quinazolin-2-amine] showed a pIC50 above 5.30.

Compound `COc1cc(C#CC(C)(C)N)cc2cnc(Nc3ccc(S(N)(=O)=O)cc3)nc12` [Example 66, 4-(6-(3-amino-3-methylbut-1-ynyl)-8-methoxyquinazolin-2-ylamino)benzenesulfonamide] had a negative logarithm of the IC50 (pIC50) of 4.60 to 5.00. As for `CC(=O)Nc1cc(CN(C)C)cc(Nc2ncc3cc(Br)cc(Cl)c3n2)c1` [Example 6, N-(3-(6-Bromo-8-chloroquinazolin-2-ylamino)-5-((dimethylamino)-methyl)phenyl)acetamide], the pIC50 was above 5.30.

In the case of `C#Cc1ccc2nc(Nc3cccc(NS(C)(=O)=O)c3)ncc2c1` [Example 61, N-(3-(6-ethynylquinazolin-2-ylamino)phenyl)-methane-sulfonamide], the pIC50 is above 5.30. The figure for `C#Cc1ccc2nc(Nc3cc(NC(C)=O)cc(NC(C)=O)c3)ncc2c1` [Example 105, N,N′-(5-(6-ethynyl-quinazolin-2-ylamino)-1,3-phenylene)diacetamide] is above 5.30; for `C#Cc1ccc2nc(Nc3ccc(N4CCOCC4)cc3)ncc2c1F` [Example 24, 6-Ethynyl-5-fluoro-N-(4-morpholinophenyl)quinazolin-2-amine] it is above 5.30. As for `NC(=O)c1ccc2nc(Nc3ccc(S(N)(=O)=O)cc3)ncc2c1` [Example 42, 2-(4-sulfamoylphenyl-amino)quinazoline-6-carboxamide], the pIC50 is above 5.30. The compound `C#Cc1ccc2nc(Nc3cccc(N4CCOCC4)c3)ncc2c1Cl` [Example 121, 5-chloro-6-ethynyl-N-(3-morpholinophenyl)-quinazolin-2-amine] showed a pIC50 above 5.30.

Take `c1csc(-c2ccc3nc(Nc4ccc(N5CCOCC5)cc4)ncc3c2)n1` [Example 100, N-(4-morpholinophenyl)-6-(thiazol-2-yl)quinazolin-2-amine]: the negative-log IC50 (pIC50) was above 5.30. In the case of `Fc1c(Br)ccc2nc(Nc3ccc(N4CCOCC4)cc3)ncc12` [Example 23, 6-Bromo-5-fluoro-N-(4-morpholinophenyl)quinazolin-2-amine], the pIC50 was above 5.30.

As to `C#Cc1cc2cnc(Nc3ccc(C(=O)NC(C)C)cc3)nc2cc1OC` [Example 73, 4-(6-ethynyl-7-methoxy-quinazolin-2-ylamino)-N-isopropylbenzamide], the pIC50 was above 5.30.

The compound `COc1ncccc1-c1cc(OC)c2nc(Nc3cc(CN(C)C)cc(NC(C)=O)c3)ncc2c1` [Example 94, N-(3-((dimethylamino)-methyl)-5-(8-methoxy-6-(2-methoxypyridin-3-yl)-quinazolin-2-ylamino)-phenyl)acetamide] had a pIC50 of 5.00 to 5.30. In the case of `COc1cc(Br)c(Cl)c2cnc(Nc3ccc(N4CCOCC4)cc3)nc12` [Example 116, 6-bromo-5-chloro-8-methoxy-N-(4-morpholinophenyl)-quinazolin-2-amine], the pIC50 is above 5.30.

Turning to `C#Cc1cc(Cl)c2nc(Nc3cc(CN(C)C)cc(NC(C)=O)c3)ncc2c1` [Example 7, N-(3-(8-Chloro-6-ethynylquinazolin-2-ylamino)-5((dimethylamino)methyl)-phenyl)acetamide], the pIC50 was above 5.30.
